Where a name gives a salt, the structure may show the parent alone.
What was measured:
[1] = test system: BxPC-3 cells; assay: 2D cytotoxicity, MTT assay, BxPC-3; type: cell-based; details: Homo sapiens, BXPC-3, 72 h, read-out: IC50 ±S.D. BxPC-3 (2D cytotoxicity)
Procedure: (§1) All newly synthesized compounds were then screened for their cytotoxic activity against two human PDAC cell lines, namely a KRAS-wild-type PDAC cell line (BxPC-3 cells) and a KRAS-mutant PDAC cell line (PSN-1 cells). […] The cytotoxicity parameters, expressed in terms of IC50 and obtained after 72 h of drug exposure by MTT assay, are listed in the Supplementary Materials (Table S2).
(§2) The growth inhibitory effect on tumor cells was evaluated by means of the MTT assay. Briefly, 3–8 × 10^3 cells/well, dependent upon the growth characteristics of the cell line, were seeded in 96-well microplates in growth medium (100 μL). After 24 h, the medium was removed and replaced with a fresh one containing the compound to be studied at the appropriate concentration. Triplicate cultures were established for each treatment. After 72 h, each well was treated with 10 μL of a 5 mg/mL MTT saline solution, and following 5 h of incubation, 100 μL of a sodium dodecyl sulfate (SDS) solution in HCl 0.01 M was added. After overnight incubation, cell growth inhibition was detected by measuring the absorbance of each well at 570 nm using a Bio-Rad 680 microplate reader. The mean absorbance for each drug dose was expressed as a percentage of the control untreated well absorbance and plotted vs. drug concentration. IC50 values, the drug concentrations that reduce the mean absorbance at 570 nm to 50% of those in the untreated control wells, were calculated by the four-parameter logistic (4-PL) model. The evaluation was based on means from at least four independent experiments.

[2] = test system: PSN-1 cells; assay: 2D cytotoxicity, MTT assay, PSN-1; type: cell-based; details: Homo sapiens, PSN1, 72 h, read-out: IC50 ±S.D. PSN-1 (2D cytotoxicity)
Procedure: as §1, §2

[3] = test system: PSN-1 cells; assay: 3D spheroid cytotoxicity, acid phosphatase (APH) assay, PSN-1; details: read-out: IC50 ±S.D. PSN-1 (3D cytotoxicity); spheroids, 72 h, APH test
Procedure: (§3) The PDAC cancer spheroids were treated with tested compounds for 72 h, and cell viability was assessed by means of the acid phosphatase (APH) assay (Table 3).
(§4) An APH-modified assay was used for determining cell viability in 3D spheroids, as previously described [61]. Briefly, the pre-seeded spheroids were treated with fresh medium containing the compound to be studied at the appropriate concentration (range 2.5–200 μM). Triplicate cultures were established for each treatment. After 72 h, each well was treated with 100 μL of the assay buffer (0.1 M sodium acetate, 0.1% Triton-X-100, supplemented with ImmunoPure p-nitrophenyl phosphate; Sigma Chemical Co., Ltd.) and, following 3 h of incubation, 10 μL of 1 M NaOH solution was added. […] The mean absorbance for each drug dose was expressed as a percentage of the control untreated well absorbance (T/C) and plotted vs. drug concentration. […] The evaluation was based on means from at least four independent experiments.

[4] = test system: BxPC-3 cells; assay: 3D spheroid cytotoxicity, acid phosphatase (APH) assay, BxPC-3; details: read-out: IC50 ±S.D. BxPC-3 (3D cytotoxicity); spheroids, 72 h, APH test
Procedure: as §3, §4

[5] = target: recombinant human PDK1 (Homo sapiens, UniProt Q15118); assay: ADP-Glo kinase assay, PDK1
Sequence of recombinant human PDK1 (Q15118 29-436): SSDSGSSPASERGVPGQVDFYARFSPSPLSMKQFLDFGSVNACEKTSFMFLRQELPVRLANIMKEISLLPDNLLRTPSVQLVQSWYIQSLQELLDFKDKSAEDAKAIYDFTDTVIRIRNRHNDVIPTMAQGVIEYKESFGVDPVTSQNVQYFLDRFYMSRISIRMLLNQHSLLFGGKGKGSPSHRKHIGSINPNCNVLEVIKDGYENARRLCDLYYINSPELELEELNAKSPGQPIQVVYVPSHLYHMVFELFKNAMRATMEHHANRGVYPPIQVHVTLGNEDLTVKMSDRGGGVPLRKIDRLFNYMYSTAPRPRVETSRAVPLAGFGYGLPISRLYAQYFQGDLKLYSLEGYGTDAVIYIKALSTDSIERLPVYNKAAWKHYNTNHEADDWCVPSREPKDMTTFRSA
Procedure: (§5) The ability of tested compounds to inhibit the activity of PDK 1–4 isoforms was primarily assessed in cell-free experiments by a chemioluminescent assay, the ADPGlo™ Kinase Assay kit from Promega (Promega Corporation, Madison, WI, USA).
(§6) The in vitro inhibitory activity of tested compounds on recombinant human PDK1-4 isoforms (Abcam, Cambridge, MA, USA) was evaluated by using the ADPGlo™ Kinase Assay kit from Promega (Promega Corporation, Madison, WI, USA) following the instructions of the manufacturer. […] The reaction was then started by the addition of substrate/ATP for 60 min at room temperature. Subsequently, ADP-Glo™ reagent was added and incubated for 40 min prior to kinase detection reagent addition. After 30 min, the luminescence was measured with a Tecan plate reader (Tecan Infinite® M200). Raw data were normalized to the values of control wells and luminescence values for each drug dose were expressed as a percentage of the luminescence of control untreated wells. […] The evaluation was based on means from at least three independent experiments.

[6] = target: recombinant human HSP90 (Homo sapiens, UniProt P07900); assay: HSP90 inhibition assay (Transcreener ADP kit); type: biochemical
Procedure: The in vitro inhibitory activity of tested compounds on recombinant human HSP90 was assessed by The Transcreener™ ADP kit (Bellbrook Labs) according to the manufacturer’s protocol. Human recombinant HSP90 protein was incubated with tested compounds in the presence of 250 μM ATP at 37 °C for 30 min, 4°C for 30 min and ATPase activity was stopped via the addition of the stop and detect buffer. Following this, samples were incubated for 1 h at room temperature with the ADP2 Antibody and the ADP Alexa594 Tracer. The fluorescence intensity polarization of samples was measured with a Tecan plate reader (Tecan Infinite® M200). The evaluation was based on means from at least three independent experiments.

[7] = test system: PSN-1 cells; assay: ROS production (CM-H2DCFDA); type: cell-based, human; details: 5 µM test compounds, antimycin 3 µM as positive control
Procedure: Consistently, tested compounds, although to different extents, were effective in reducing total cellular sulfhydryl contents in PSN-1-treated cells (Figure 9B).
The production of ROS was measured in PSN-1 cells (10^4 per well) grown for 24 h in a 96-well plate in RPMI medium without phenol red (Sigma Aldrich, Germany). Cells were then washed with PBS and loaded with 10 μM 5-(and-6)-chloromethyl-2′,7′-dichlorodihydrofluorescein diacetate acetylester (CM–H2DCFDA) (Molecular Probes-Invitrogen, Eugene, OR, USA) for 45 min, in the dark. Afterward, cells were washed with PBS and incubated with tested compounds. Fluorescence increase was estimated utilizing the wavelengths of 485 nm (excitation) and 527 nm (emission) in a VICTOR X3 (PerkinElmer, USA) plate reader. Antimycin (3 μM, Sigma Aldrich), a potent inhibitor of Complex III in the electron transport chain, was used as the positive control.

[8] = test system: PSN-1 cells; assay: Mitochondrial membrane potential (Mito-ID kit); type: cell-based, human; details: IC50 concentrations
Procedure: The ΔΨ was assayed using the Mito-ID® Membrane Potential Kit according to the manufacturer’s instructions (Enzo Life Sciences, Farmingdale, NY, USA) as previously described. Briefly, PSN-1 cells (8 × 10^3 per well) were seeded in 96-well plates; after 24 h, cells were washed with PBS and loaded with Mito-ID Detection Reagent for 30 min at 37 °C in the dark. Afterward, cells were incubated with tested compounds for 60 min. CCCP (Carbonyl cyanide 3-chlorophenyl-hydrazone) was used as the positive control. Fluorescence intensity was estimated using a VICTOR X3 (PerkinElmer, Waltham, MA, USA) plate reader at 490 (excitation) and 590 nm (emission).

[9] = target: recombinant human PDK4 (Homo sapiens, UniProt Q16654); assay: ADP-Glo kinase assay, PDK4; details: 1.5 µM compound
Sequence of recombinant human PDK4 (Q16654 whole entry): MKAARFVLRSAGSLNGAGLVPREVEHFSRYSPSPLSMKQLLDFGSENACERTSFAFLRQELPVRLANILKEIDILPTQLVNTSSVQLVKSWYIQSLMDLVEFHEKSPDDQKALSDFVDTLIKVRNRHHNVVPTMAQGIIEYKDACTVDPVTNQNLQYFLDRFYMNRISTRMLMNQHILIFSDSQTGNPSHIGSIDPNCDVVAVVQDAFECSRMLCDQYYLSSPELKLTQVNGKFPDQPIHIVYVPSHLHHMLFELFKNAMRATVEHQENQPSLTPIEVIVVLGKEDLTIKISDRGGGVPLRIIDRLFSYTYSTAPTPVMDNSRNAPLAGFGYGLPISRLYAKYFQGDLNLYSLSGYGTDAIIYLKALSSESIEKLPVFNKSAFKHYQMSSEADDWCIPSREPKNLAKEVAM
Procedure: as §5, §6

[10] = Body weight changes of LLC-bearing mice; type: in vivo; details: LLC-bearing C57BL mice, daily dosing; gemcitabine 60 mg kg−1, cisplatin 3 mg kg−1
[11] = test system: murine Lewis Lung Carcinoma (LLC); assay: In vivo anticancer activity, LLC solid tumor model; details: LLC-bearing C57BL mice, daily dosing days 7-14, evaluated day 15; 5i 20 mg kg−1 i.p., gemcitabine 60 mg kg−1, cisplatin 3 mg kg−1
Source text: Seven days after tumor inoculation the tumor-bearing mice were randomized into vehicle control and treatment groups.
The LLC was implanted intramuscularly (i.m.) as a 2 × 10^6 cell inoculum into the right hind leg of 8-week-old male and female C57BL mice (24 ± 3 g body weight). After 7 days from tumor implantation (visible tumors), mice were randomly divided into 4 groups (8 animals per group) and subjected to daily i.p. administration. […] At day 15, animals were sacrificed, the legs were amputated at the proximal end of the femur, and the inhibition of tumor growth was determined from the difference in the weights of the tumor-bearing leg and the healthy leg of the animals, expressed as a percentage referenced to the control animals. Body weight was measured at day 0 and from day 7 onwards every 2 days and was taken as a parameter for systemic toxicity. All presented values are the means ± SD of no less than three measurements.

[12] = 72 h, MTT test, KRAS-wild-type BxPC-3
[13] = 72 h, MTT test, KRAS-mutant PSN-1

| melting point | SMILES | IC50 [1, 12] | IC50 [2, 13] | further results |
| --- | --- | --- | --- | --- |
| 288.2 °C | Nc1nnc(-c2c[nH]c3ccccc23)c(-c2c[nH]c3ccccc23)n1 [5a] | – | – | – |
| 267.8 °C | COc1ccc2[nH]cc(-c3nnc(N)nc3-c3cn(C)c4ccc(Br)cc34)c2c1 [5aa] | – | – | – |
| 178.1 °C | Nc1nnc(-c2c[nH]c3ccc(F)cc23)c(-c2c[nH]c3ccc(F)cc23)n1 [5c] | – | – | – |
| 208.2 °C | Nc1nnc(-c2c[nH]c3ccc(Br)cc23)c(-c2c[nH]c3ccc(Br)cc23)n1 [5d] | 0.4 ± 0.1 µM | 0.3 ± 0.04 µM | – |
| 274.4 °C | Cn1cc(-c2nnc(N)nc2-c2cn(C)c3ccccc23)c2ccccc21 [5e] | – | – | – |
| 199.5 °C | COc1ccc2c(c1)c(-c1nnc(N)nc1-c1cn(C)c3ccc(OC)cc13)cn2C [5f] | – | – | – |
| 236.5 °C | Cn1cc(-c2nnc(N)nc2-c2cn(C)c3ccc(F)cc23)c2cc(F)ccc21 [5g] | – | – | IC50 [3]: 5.8 ± 0.8 µM; IC50 [4]: 19.5 ± 2.1 µM |
| 257.3 °C | Cn1cc(-c2nnc(N)nc2-c2cn(C)c3ccc(Br)cc23)c2ccccc21 [5j] | 0.1 ± 0.04 µM | 0.4 ± 0.1 µM | IC50 [3]: 10.4 ± 1.6 µM; IC50 [4]: 16.7 ± 2 µM |
| 246.6 °C | Cn1cc(-c2nc(N)nnc2-c2c[nH]c3ccccc23)c2ccccc21 [5m] | – | – | – |
| 254.3 °C | Cn1cc(-c2nc(N)nnc2-c2c[nH]c3ccccc23)c2cc(F)ccc21 [5n] | – | – | – |
| 271 °C | Cn1cc(-c2nc(N)nnc2-c2c[nH]c3ccccc23)c2cc(Br)ccc21 [5o] | 0.2 ± 0.03 µM | 0.5 ± 0.1 µM | – |
| 288.4 °C | COc1ccc2c(c1)c(-c1nc(N)nnc1-c1c[nH]c3ccccc13)cn2C [5p] | – | – | – |
| 239 °C | Cn1cc(-c2nc(N)nnc2-c2c[nH]c3ccc(Br)cc23)c2cc(Br)ccc21 [5r] | – | – | – |
| 266.9 °C | Cn1cc(-c2nc(N)nnc2-c2c[nH]c3ccc(Br)cc23)c2cc(F)ccc21 [5t] | 1.4 ± 0.2 µM | 0.4 ± 0.1 µM | – |
| 285.9 °C | Cn1cc(-c2nc(N)nnc2-c2c[nH]c3ccc(F)cc23)c2ccccc21 [5v] | 0.2 ± 0.03 µM | 0.2 ± 0.04 µM | – |
| 267.6 °C | Cn1cc(-c2nc(N)nnc2-c2c[nH]c3ccc(F)cc23)c2cc(Br)ccc21 [5x] | 0.2 ± 0.04 µM | 0.3 ± 0.1 µM | IC50 [5]: 0.7 µM; IC50 [6]: > 1.5 µM |
| 205.5 °C | COc1ccc2[nH]cc(-c3nnc(N)nc3-c3cn(C)c4ccc(OC)cc34)c2c1 [5y] | – | – | – |
| 249.4 °C | COc1ccc2[nH]cc(-c3nnc(N)nc3-c3cn(C)c4ccccc34)c2c1 [5z] | – | – | – |

| melting point | SMILES | IC50 [1, 12] | IC50 [2, 13] | further results |
| --- | --- | --- | --- | --- |
| 241.8 °C | COc1ccc2[nH]cc(-c3nc(N)nnc3-c3cn(C)c4ccc(Br)cc34)c2c1 [6aa] | – | – | – |
| 251.2 °C | COc1ccc2c(c1)c(-c1nnc(N)nc1-c1cn(C)c3ccc(F)cc13)cn2C [6k] | – | – | IC50 [3]: 9.4 ± 0.2 µM; IC50 [4]: 22.3 ± 2.6 µM |
| 311.3 °C | Cn1cc(-c2nnc(N)nc2-c2c[nH]c3ccccc23)c2ccccc21 [6m] | – | – | – |
| 291 °C | Cn1cc(-c2nnc(N)nc2-c2c[nH]c3ccccc23)c2cc(Br)ccc21 [6o] | 0.3 ± 0.03 µM | 0.4 ± 0.04 µM | – |
| 279.6 °C | COc1ccc2c(c1)c(-c1nnc(N)nc1-c1c[nH]c3ccccc13)cn2C [6p] | – | – | – |
| 282.4 °C | Cn1cc(-c2nnc(N)nc2-c2c[nH]c3ccc(Br)cc23)c2cc(Br)ccc21 [6r] | – | – | – |
| 207.7 °C | COc1ccc2c(c1)c(-c1nnc(N)nc1-c1c[nH]c3ccc(Br)cc13)cn2C [6s] | – | – | ROS basal level production / hydrogen peroxide formation [7]: increase in the ROS basal level production; IC50 [5]: 0.09 ± 0.04 µM; effect on enzymatic activity of PDK1 ([5]; 1.5 µM compound, 30 min preincubation): totally suppressed; percentage of cells with hypopolarized mitochondrial membrane potential (in words) [8]: significantly increased; IC50 [3]: 22.3 ± 2.3 µM; IC50 [4]: 29.2 ± 1.4 µM; effect on PDK4 activity (ATP consumption) [9]: completely blocked; decrease of HSP90 catalytic activity ([6]; 1.5 µM compound (equivalent doses)): 60–80% |
| 314.3 °C | Cn1cc(-c2nnc(N)nc2-c2c[nH]c3ccc(Br)cc23)c2cc(F)ccc21 [6t] | – | – | – |
| 259.5 °C | Cn1cc(-c2nc(N)nnc2-c2c[nH]c3ccc(F)cc23)c2cc(F)ccc21 [6u] | – | – | – |
| 295.8 °C | Cn1cc(-c2nnc(N)nc2-c2c[nH]c3ccc(F)cc23)c2ccccc21 [6v] | 0.1 ± 0.02 µM | 0.2 ± 0.03 µM | – |
| 270.2 °C | Cn1cc(-c2nnc(N)nc2-c2c[nH]c3ccc(F)cc23)c2cc(Br)ccc21 [6x] | 0.3 ± 0.1 µM | 0.3 ± 0.04 µM | – |
| 263.3 °C | COc1ccc2[nH]cc(-c3nc(N)nnc3-c3cn(C)c4ccc(OC)cc34)c2c1 [6y] | 0.3 ± 0.1 µM | 0.6 ± 0.04 µM | – |
| 243.3 °C | COc1ccc2[nH]cc(-c3nc(N)nnc3-c3cn(C)c4ccccc34)c2c1 [6z] | – | – | – |
| – | O=C(c1ccccc1)C(Cl)Cl [DAP, 2,2-dichloroacetophenone, reference compound] | – | – | IC50 [1]: 1.06 ± 0.9 µM; IC50 [2]: 10.2 ± 1.6 µM; IC50 [5]: > 100 µM; IC50 [3]: 78.2 ± 6.8 µM; IC50 [4]: 87.4 ± 8.9 µM |
| – | O=C(O)C(Cl)Cl [DCA, Dichloroacetic acid, reference compound] | – | – | IC50 [3]: > 1000 µM; IC50 [4]: > 1000 µM |
| – | Nc1ccn([C@@H]2O[C@H](CO)[C@@H](O)C2(F)F)c(=O)n1 [Gemcitabine, gemcitabine hydrochloride, reference compound] | 0.02 ± 0.003 µM | 0.1 ± 0.04 µM | body weight loss [10]: ~ 20%; reduction in tumor growth compared to the control group [11]: about 80%; IC50 [3]: 160 ± 5.6 µM; IC50 [4]: 103 ± 6.3 µM |
| – | N.N.[Cl][Pt][Cl] [cisplatin] | – | – | body weight loss [10]: ~ 20%; reduction in tumor growth compared to the control group [11]: ~ 84% |

— publication PMC9959349, “Discovery of the 3-Amino-1,2,4-triazine-Based Library as Selective PDK1 Inhibitors with Therapeutic Potential in Highly Aggressive Pancreatic Ductal Adenocarcinoma” (International Journal of Molecular Sciences, 2023)
